# According to patent US20260216176A1, “USE OF PCLX-001 OR PCLX-002 AS A RADIOSENSITIZER” (ACYLEX PHARMACEUTICALS INC., priority 2023, published 2026):
# Where “and” joins values, the source holds several entries; their conditions need not be identical. Equal values may be shown once. Read-outs that look alike come from different tables or passages of the source.
# Columns and labels:
# [1] = system: U251 glioblastoma cell line; test: Alamar Blue cell viability assay of radiosensitization (PCLX-001 pre-treatment plus radiation); type: cell-based, human
# Procedure: Cancer cell lines of human origin were cultivated in the suitable culture medium enriched with 10% fetal bovine serum (FBS) and a 1% mixture of penicillin-streptomycin. These were incubated at a temperature of 37° C. in a 5% CO2 humid environment. The cells were sub-cultured upon reaching a confluence of 80% with the aid of 0.25% trypsin-EDTA [Freshney, R. I., 2010. Culture of animal cells: a manual of basic technique and specialized applications. John Wiley & Sons].
# PCLX-001 was prepared at several concentrations for use as a radiosensitizing drug (serial dilutions from 1000 nM, including control 0 nM) in culture media. The cancer cells cultures were then treated with the aforementioned PCLX-001 concentrations and left for 24 h, 48 h, 72 h, and 96 h to allow for maximum pharmacodynamic effect. The cells were then plated into 96-well plates at 5000 cells per well and left to attach overnight while continuing to incubate in the drug/media cocktail.
# Upon completion of the PCLX-001 incubation period, a single radiation dose was administered to the cells using a preclinical irradiator. The quantity of radiation was decided based on the results from prior optimization tests [Hall, E. J., Giaccia, A. J., 2012. Radiobiology for the radiologist. Lippincott Williams & Wilkins.]. The radiation doses included 0, 2, and 4 Gy, which corresponds to the most common clinical radiation dose fractions used.
# 72 hours post-radiation, an Alamar Blue Assay was conducted to determine cell viability. Alamar Blue dye was added to the media (10% v/v) and the plates were incubated at 37° C. for 4 hours. Using a fluorescence plate reader, fluorescence was measured at excitation/emission wavelengths of 560/590 nm. To quantify cell viability, the results were normalized to the data from untreated controls [Ahmed, S. A., et al., 1994].
# The data were shown as mean±standard deviation (SD) gathered from three or more independent tests. A one-way ANOVA followed by a post hoc Tukey test was used for statistical analyses to find significant disparities between treatment groups. […]
# [2] = Plasma, brain and CSF pharmacokinetics and brain tissue accumulation in mice (LC-MS/MS); type: in vivo, male C57BL/6 mice; settings: for Cmax: read-out: C0/Cmax; for half-life: read-out: T½ (converted)
# [3] = male, C57BL/6, mouse, oral gavage 5 mg/kg, Brain
# [4] = male, C57BL/6, mouse, oral gavage 5 mg/kg, CSF
# [5] = male, C57BL/6, mouse, oral gavage 5 mg/kg, Plasma
smiles,measurement,setting,value
Cc1c(N[S+](=O)(O)c2c(Cl)cc(-c3ccnc(N4CCNCC4)c3)cc2Cl)c(CC(C)C)nn1C [PCLX-001],dose-enhancement factor,"[1]; U251, below 25 nM",below 1.2
same,toxicity of the drug itself versus radiotherapy effect,[1]; above 150 nM,toxicity of the drug itself exceeds the effect of typical radiotherapy dose-per-fraction's effect
same,increase of radiotherapy's effectiveness,[1]; cancer cell line tested (human glioblastoma),about 80%
same,Plasma Conc.,"[2]; 5 mg/kg oral, time point 0.00 h, individual animals",0.00 nM
same,concentration at 8 h,"[2]; 5 mg/kg oral, time point 0.00 h, individual animals, read-out: Brain Conc.",0.00 nM
same,concentration at 24 h,"[2]; 5 mg/kg oral, time point 0.00 h, individual animals, read-out: CSF Conc.",0.00 nM
same,Plasma Conc.,"[2]; 5 mg/kg oral, time point 0.25 h, individual animals",6762.56 nM and 8570.40 nM
same,concentration at 8 h,"[2]; 5 mg/kg oral, time point 0.25 h, individual animals, read-out: Brain Conc.",73.74 nM and 86.13 nM
same,concentration at 24 h,"[2]; 5 mg/kg oral, time point 0.25 h, individual animals, read-out: CSF Conc.",11.50 nM and 3.78 nM and 7.47 nM
same,Plasma Conc.,"[2]; 5 mg/kg oral, time point 0.50 h, individual animals",8294.21 nM and 6591.89 nM
same,concentration at 8 h,"[2]; 5 mg/kg oral, time point 0.50 h, individual animals, read-out: Brain Conc.",122.31 nM and 138.42 nM
same,concentration at 24 h,"[2]; 5 mg/kg oral, time point 0.50 h, individual animals, read-out: CSF Conc.",4.19 nM and 2.89 nM
same,Plasma Conc.,"[2]; 5 mg/kg oral, time point 1.00 h, individual animals",9051.65 nM and 8883.32 nM
same,concentration at 8 h,"[2]; 5 mg/kg oral, time point 1.00 h, individual animals, read-out: Brain Conc.",54.48 nM and 64.47 nM
same,concentration at 24 h,"[2]; 5 mg/kg oral, time point 1.00 h, individual animals, read-out: CSF Conc.",2.72 nM and 8.67 nM and 3.50 nM
same,Plasma Conc.,"[2]; 5 mg/kg oral, time point 2.00 h, individual animals",5724.05 nM and 5659.43 nM
same,concentration at 8 h,"[2]; 5 mg/kg oral, time point 2.00 h, individual animals, read-out: Brain Conc.",185.79 nM and 81.69 nM and 204.51 nM
same,concentration at 24 h,"[2]; 5 mg/kg oral, time point 2.00 h, individual animals, read-out: CSF Conc.",7.26 nM and 15.58 nM and 16.86 nM
same,Plasma Conc.,"[2]; 5 mg/kg oral, time point 4.00 h, individual animals",13975.97 nM and 6234.47 nM and 11667.07 nM
same,concentration at 8 h,"[2]; 5 mg/kg oral, time point 4.00 h, individual animals, read-out: Brain Conc.",243.03 nM and 114.75 nM and 171.09 nM
same,concentration at 24 h,"[2]; 5 mg/kg oral, time point 4.00 h, individual animals, read-out: CSF Conc.",15.26 nM and 6.67 nM and 87.98 nM
same,Plasma Conc.,"[2]; 5 mg/kg oral, time point 8.00 h, individual animals",2821.68 nM and 6573.92 nM and 6832.35 nM
same,concentration at 8 h,"[2]; 5 mg/kg oral, time point 8.00 h, individual animals, read-out: Brain Conc.",135.06 nM and 148.56 nM
same,concentration at 24 h,"[2]; 5 mg/kg oral, time point 8.00 h, individual animals, read-out: CSF Conc.",30.28 nM and 5.97 nM and 7.19 nM
same,Plasma Conc.,"[2]; 5 mg/kg oral, time point 24.00 h, individual animals",6.38 nM and 4.10 nM
same,concentration at 8 h,"[2]; 5 mg/kg oral, time point 24.00 h, individual animals, read-out: Brain Conc.",0.00 nM and 8.13 nM and 12.81 nM
same,concentration at 24 h,"[2]; 5 mg/kg oral, time point 24.00 h, individual animals, read-out: CSF Conc.",0.00 nM
same,time of peak brain drug concentrations,[2]; after oral administration,approximately 4 h
same,concentration at 0.5 h,"[2]; male, C57BL/6, mouse, CSF, oral, 5 mg/kg, 5 mg/kg oral, time point 0.50 h, individual animals, read-out: CSF Conc.",3.44 nM
same,concentration at 24 h,"[2]; male, C57BL/6, mouse, CSF, oral, 5 mg/kg, 5 mg/kg oral, time point 24.00 h, individual animals, read-out: CSF Conc.",0 nM
same,Kp at 0.25 h,"[2]; male, C57BL/6, mouse, brain and CSF, 5 mg/kg oral, time point 0.25 h, read-out: Brain/CSF-Kp",13
same,concentration at 0.25 h,"[2]; male, C57BL/6, mouse, brain, oral, 5 mg/kg, 5 mg/kg oral, time point 0.25 h, individual animals, read-out: Brain Conc.",135 nM
same,concentration at 0.25 h,"[2]; male, C57BL/6, mouse, brain, oral, 5 mg/kg, 5 mg/kg oral, time point 0.25 h, read-out: Mean Brain Conc.",98.3 nM
same,concentration at 0.5 h,"[2]; male, C57BL/6, mouse, brain, oral, 5 mg/kg, 5 mg/kg oral, time point 0.50 h, individual animals, read-out: Brain Conc.",108 nM
same,concentration at 0.5 h,"[2]; male, C57BL/6, mouse, brain, oral, 5 mg/kg, 5 mg/kg oral, time point 0.50 h, read-out: Mean Brain Conc.",123 nM
same,concentration at 1 h,"[2]; male, C57BL/6, mouse, brain, oral, 5 mg/kg, 5 mg/kg oral, time point 1.00 h, individual animals, read-out: Brain Conc.",75.5 nM
same,concentration at 1 h,"[2]; male, C57BL/6, mouse, brain, oral, 5 mg/kg, 5 mg/kg oral, time point 1.00 h, read-out: Mean Brain Conc.",64.8 nM
same,concentration at 2 h,"[2]; male, C57BL/6, mouse, brain, oral, 5 mg/kg, 5 mg/kg oral, time point 2.00 h, read-out: Mean Brain Conc.",157 nM
same,concentration at 4 h,"[2]; male, C57BL/6, mouse, brain, oral, 5 mg/kg, 5 mg/kg oral, time point 4.00 h, read-out: Mean Brain Conc.",176 nM
same,concentration at 8 h,"[2]; male, C57BL/6, mouse, brain, oral, 5 mg/kg, 5 mg/kg oral, time point 8.00 h, individual animals, read-out: Brain Conc.",79.3 nM
same,concentration at 8 h,"[2]; male, C57BL/6, mouse, brain, oral, 5 mg/kg, 5 mg/kg oral, time point 8.00 h, read-out: Mean Brain Conc.",121 nM
same,concentration at 24 h,"[2]; male, C57BL/6, mouse, brain, oral, 5 mg/kg, 5 mg/kg oral, time point 24.00 h, read-out: Mean Brain Conc.",6.98 nM
same,Kp at 0.5 h,"[2]; male, C57BL/6, mouse, brain/CSF, 5 mg/kg oral, time point 0.50 h, read-out: Brain/CSF-Kp",35
same,Kp at 1 h,"[2]; male, C57BL/6, mouse, brain/CSF, 5 mg/kg oral, time point 1.00 h, read-out: Brain/CSF-Kp",13.1
same,Kp at 2 h,"[2]; male, C57BL/6, mouse, brain/CSF, 5 mg/kg oral, time point 2.00 h, read-out: Brain/CSF-Kp",11.9
same,Kp at 4 h,"[2]; male, C57BL/6, mouse, brain/CSF, 5 mg/kg oral, time point 4.00 h, read-out: Brain/CSF-Kp",4.81
same,Kp at 8 h,"[2]; male, C57BL/6, mouse, brain/CSF, 5 mg/kg oral, time point 8.00 h, read-out: Brain/CSF-Kp",8.35
same,Kp at 0.25 h,"[2]; male, C57BL/6, mouse, brain/plasma, 5 mg/kg oral, time point 0.25 h, read-out: B/P-Kp (brain to plasma ratio)",0.01
same,Kp at 0.5 h,"[2]; male, C57BL/6, mouse, brain/plasma, 5 mg/kg oral, time point 0.50 h, read-out: B/P-Kp (brain to plasma ratio)",0.02
same,Kp at 1 h,"[2]; male, C57BL/6, mouse, brain/plasma, 5 mg/kg oral, time point 1.00 h, read-out: B/P-Kp (brain to plasma ratio)",0.01
same,Kp at 2 h,"[2]; male, C57BL/6, mouse, brain/plasma, 5 mg/kg oral, time point 2.00 h, read-out: B/P-Kp (brain to plasma ratio)",0.02
same,Kp at 4 h,"[2]; male, C57BL/6, mouse, brain/plasma, 5 mg/kg oral, time point 4.00 h, read-out: B/P-Kp (brain to plasma ratio)",0.02
same,Kp at 8 h,"[2]; male, C57BL/6, mouse, brain/plasma, 5 mg/kg oral, time point 8.00 h, read-out: B/P-Kp (brain to plasma ratio)",0.02
same,Kp at 24 h,"[2]; male, C57BL/6, mouse, brain/plasma, 5 mg/kg oral, time point 24.00 h, read-out: B/P-Kp (brain to plasma ratio)",1.24
same,concentration at 0.25 h,"[2]; male, C57BL/6, mouse, plasma, oral, 5 mg/kg, 5 mg/kg oral, time point 0.25 h, individual animals, read-out: Plasma Conc.",9590 nM
same,concentration at 0.25 h,"[2]; male, C57BL/6, mouse, plasma, oral, 5 mg/kg, 5 mg/kg oral, time point 0.25 h, read-out: Mean Plasma Conc.",8310 nM
same,concentration at 0.5 h,"[2]; male, C57BL/6, mouse, plasma, oral, 5 mg/kg, 5 mg/kg oral, time point 0.50 h, individual animals, read-out: Plasma Conc.",4650 nM
same,concentration at 0.5 h,"[2]; male, C57BL/6, mouse, plasma, oral, 5 mg/kg, 5 mg/kg oral, time point 0.50 h, read-out: Mean Plasma Conc.",6510 nM
same,concentration at 1 h,"[2]; male, C57BL/6, mouse, plasma, oral, 5 mg/kg, 5 mg/kg oral, time point 1.00 h, individual animals, read-out: Plasma Conc.",7240 nM
same,concentration at 1 h,"[2]; male, C57BL/6, mouse, plasma, oral, 5 mg/kg, 5 mg/kg oral, time point 1.00 h, read-out: Mean Plasma Conc.",8390 nM
same,concentration at 2 h,"[2]; male, C57BL/6, mouse, plasma, oral, 5 mg/kg, 5 mg/kg oral, time point 2.00 h, individual animals, read-out: Plasma Conc.",9730 nM
same,concentration at 2 h,"[2]; male, C57BL/6, mouse, plasma, oral, 5 mg/kg, 5 mg/kg oral, time point 2.00 h, read-out: Mean Plasma Conc.",7040 nM
same,concentration at 4 h,"[2]; male, C57BL/6, mouse, plasma, oral, 5 mg/kg, 5 mg/kg oral, time point 4.00 h, read-out: Mean Plasma Conc.",10600 nM
same,concentration at 8 h,"[2]; male, C57BL/6, mouse, plasma, oral, 5 mg/kg, 5 mg/kg oral, time point 8.00 h, read-out: Mean Plasma Conc.",5410 nM
same,concentration at 24 h,"[2]; male, C57BL/6, mouse, plasma, oral, 5 mg/kg, 5 mg/kg oral, time point 24.00 h, individual animals, read-out: Plasma Conc.",6.39 nM
same,concentration at 24 h,"[2]; male, C57BL/6, mouse, plasma, oral, 5 mg/kg, 5 mg/kg oral, time point 24.00 h, read-out: Mean Plasma Conc.",5.63 nM
same,AUC(0-t),[2]; [3],2.15 µM·h
same,Tmax,[2]; [3],4 h
same,Cmax,[2]; [3],176 nM
same,Kp,"[2]; male, C57BL/6, mouse, oral gavage 5 mg/kg, Brain, read-out: T/P ratio (Tissue to plasma AUClast ratio)",0.02
same,half-life,[2]; [3],4.17 h
same,AUC(0-t),[2]; [4],0.166 µM·h
same,Tmax,[2]; [4],4 h
same,Cmax,[2]; [4],36.6 nM
same,AUC(0-t),[2]; [5],108 µM·h
same,Tmax,[2]; [5],4 h
same,bioavailability,[2]; [5],97%
same,Cmax,[2]; [5],10600 nM
same,half-life,[2]; [5],1.77 h
